According to patent US20230117470A1, “SUBSTITUTED PYRAZOLE COMPOUNDS AS TOLL RECEPTOR INHIBITORS” (BRISTOL-MYERS SQUIBB COMPANY, priority 2019, published 2023):

Key:
Type in all cases: cell-based
human TLR7 = molecular target: T1, human TLR7 (Homo sapiens, UniProt Q9NYK1); assay: TLR7 inhibition reporter assay (HEK-Blue cells, SEAP reporter, gardiquimod stimulation); details: HEK-Blue cells overexpressing human TLR7, SEAP reporter, gardiquimod 7.5 μM
T1 construct: host or cells: HEK-Blue cells
T1 sequence (Q9NYK1 27-1049): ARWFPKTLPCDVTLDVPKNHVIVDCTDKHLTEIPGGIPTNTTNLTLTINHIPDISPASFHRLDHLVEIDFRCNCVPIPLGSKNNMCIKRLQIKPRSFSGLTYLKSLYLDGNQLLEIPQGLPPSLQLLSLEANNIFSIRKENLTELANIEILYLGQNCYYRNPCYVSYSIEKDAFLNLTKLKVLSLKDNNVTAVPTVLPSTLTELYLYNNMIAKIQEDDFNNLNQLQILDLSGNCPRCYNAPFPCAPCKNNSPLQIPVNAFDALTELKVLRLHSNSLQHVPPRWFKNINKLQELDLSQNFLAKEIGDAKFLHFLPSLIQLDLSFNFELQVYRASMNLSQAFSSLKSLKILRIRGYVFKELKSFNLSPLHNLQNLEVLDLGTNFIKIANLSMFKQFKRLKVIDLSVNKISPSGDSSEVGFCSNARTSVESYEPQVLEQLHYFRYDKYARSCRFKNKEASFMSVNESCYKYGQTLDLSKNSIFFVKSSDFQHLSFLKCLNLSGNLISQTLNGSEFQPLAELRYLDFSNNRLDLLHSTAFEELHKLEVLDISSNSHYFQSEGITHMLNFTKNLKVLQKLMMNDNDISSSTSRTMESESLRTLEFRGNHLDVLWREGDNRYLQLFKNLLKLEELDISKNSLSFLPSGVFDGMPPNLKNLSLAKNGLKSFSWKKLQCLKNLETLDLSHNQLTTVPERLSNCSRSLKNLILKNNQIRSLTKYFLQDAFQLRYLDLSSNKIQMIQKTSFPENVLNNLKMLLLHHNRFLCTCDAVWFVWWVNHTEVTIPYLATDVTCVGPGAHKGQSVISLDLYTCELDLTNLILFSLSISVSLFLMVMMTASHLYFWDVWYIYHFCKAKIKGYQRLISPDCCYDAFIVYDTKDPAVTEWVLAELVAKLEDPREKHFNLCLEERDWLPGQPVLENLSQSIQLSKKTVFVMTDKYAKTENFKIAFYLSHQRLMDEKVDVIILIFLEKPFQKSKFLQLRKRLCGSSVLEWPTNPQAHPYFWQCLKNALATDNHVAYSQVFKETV
Description: (§1) TLR7/8/9 Inhibition Reporter Assays
(§2) HEK-Blue™-cells (Invivogen) overexpressing human TLR7, TLR8 or TLR9 receptors were used for screening inhibitors of these receptors using an inducible SEAP (secreted embryonic alkaline phosphatase) reporter gene under the control of the IFN-β minimal promoter fused to five NF-κB and AP-1-binding sites. Briefly, cells are seeded into Greiner 384 well plates (15000 cells per well for TLR7, 20,000 for TLR8 and 25,000 for TLR9) and then treated with test compounds in DMSO to yield a final dose response concentration range of 0.05 nM-50 μM. After a 30 minute compound pre-treatment at room temperature, the cells are then stimulated with a TLR7 ligand (gardiquimod at a final concentration of 7.5 μM), TLR8 ligand (R848 at a final concentration of 15.9 μM) or TLR9 ligand (ODN2006 at a final concentration of 5 nM) to activate NF-κB and AP-1 which induce the production of SLA After a 22 hour incubation at 37° C., […], SEAP levels are determined with the addition of HEK-Blue™ Detection reagent (Invivogen), a cell culture medium that allows for detection of SLAP, according to manufacturer's specifications. The percent inhibition is determined as the % reduction in the HEK-Blue signal present in wells treated with agonist plus DMSO alone compared to wells treated with a known inhibitor.

human TLR8 = molecular target: T2, human TLR8 (Homo sapiens, UniProt Q9NR97); assay: TLR8 inhibition reporter assay (HEK-Blue cells, SEAP reporter, R848 stimulation); details: HEK-Blue cells overexpressing human TLR8, SEAP reporter, R848 15.9 μM
T2 construct: host or cells: HEK-Blue cells
T2 sequence (Q9NR97 27-1041): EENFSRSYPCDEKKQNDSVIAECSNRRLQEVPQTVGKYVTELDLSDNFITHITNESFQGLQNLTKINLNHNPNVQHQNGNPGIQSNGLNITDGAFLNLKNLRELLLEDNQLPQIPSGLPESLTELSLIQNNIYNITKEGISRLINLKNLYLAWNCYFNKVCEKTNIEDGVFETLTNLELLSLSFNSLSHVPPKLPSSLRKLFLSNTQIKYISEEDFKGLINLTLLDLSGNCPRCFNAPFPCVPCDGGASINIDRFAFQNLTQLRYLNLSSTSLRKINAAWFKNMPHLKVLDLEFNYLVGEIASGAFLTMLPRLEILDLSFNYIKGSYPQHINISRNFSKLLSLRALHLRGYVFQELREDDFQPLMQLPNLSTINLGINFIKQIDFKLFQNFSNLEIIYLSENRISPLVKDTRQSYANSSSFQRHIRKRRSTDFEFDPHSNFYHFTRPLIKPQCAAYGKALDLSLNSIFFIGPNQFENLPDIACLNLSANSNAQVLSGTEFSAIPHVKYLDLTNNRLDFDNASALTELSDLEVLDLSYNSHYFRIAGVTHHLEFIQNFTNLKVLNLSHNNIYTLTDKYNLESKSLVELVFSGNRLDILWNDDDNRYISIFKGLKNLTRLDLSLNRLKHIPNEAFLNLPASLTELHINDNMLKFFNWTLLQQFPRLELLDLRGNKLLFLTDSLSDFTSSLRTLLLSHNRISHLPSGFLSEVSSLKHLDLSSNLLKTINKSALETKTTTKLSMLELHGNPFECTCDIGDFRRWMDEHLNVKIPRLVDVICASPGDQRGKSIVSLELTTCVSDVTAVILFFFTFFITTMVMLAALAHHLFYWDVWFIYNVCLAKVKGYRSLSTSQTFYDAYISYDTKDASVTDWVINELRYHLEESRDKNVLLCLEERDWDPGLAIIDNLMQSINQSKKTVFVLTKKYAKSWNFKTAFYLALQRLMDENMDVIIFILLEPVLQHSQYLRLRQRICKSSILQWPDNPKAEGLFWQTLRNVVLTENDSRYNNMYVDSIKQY
Description: as §1, §2

human TLR9 = molecular target: T3, human TLR9 (Homo sapiens, UniProt Q9NR96); assay: TLR9 inhibition reporter assay (HEK-Blue cells, SEAP reporter, ODN2006 stimulation); details: HEK-Blue cells overexpressing human TLR9, SEAP reporter, ODN2006 5 nM
T3 construct: host or cells: HEK-Blue cells
T3 sequence (Q9NR96 26-1032): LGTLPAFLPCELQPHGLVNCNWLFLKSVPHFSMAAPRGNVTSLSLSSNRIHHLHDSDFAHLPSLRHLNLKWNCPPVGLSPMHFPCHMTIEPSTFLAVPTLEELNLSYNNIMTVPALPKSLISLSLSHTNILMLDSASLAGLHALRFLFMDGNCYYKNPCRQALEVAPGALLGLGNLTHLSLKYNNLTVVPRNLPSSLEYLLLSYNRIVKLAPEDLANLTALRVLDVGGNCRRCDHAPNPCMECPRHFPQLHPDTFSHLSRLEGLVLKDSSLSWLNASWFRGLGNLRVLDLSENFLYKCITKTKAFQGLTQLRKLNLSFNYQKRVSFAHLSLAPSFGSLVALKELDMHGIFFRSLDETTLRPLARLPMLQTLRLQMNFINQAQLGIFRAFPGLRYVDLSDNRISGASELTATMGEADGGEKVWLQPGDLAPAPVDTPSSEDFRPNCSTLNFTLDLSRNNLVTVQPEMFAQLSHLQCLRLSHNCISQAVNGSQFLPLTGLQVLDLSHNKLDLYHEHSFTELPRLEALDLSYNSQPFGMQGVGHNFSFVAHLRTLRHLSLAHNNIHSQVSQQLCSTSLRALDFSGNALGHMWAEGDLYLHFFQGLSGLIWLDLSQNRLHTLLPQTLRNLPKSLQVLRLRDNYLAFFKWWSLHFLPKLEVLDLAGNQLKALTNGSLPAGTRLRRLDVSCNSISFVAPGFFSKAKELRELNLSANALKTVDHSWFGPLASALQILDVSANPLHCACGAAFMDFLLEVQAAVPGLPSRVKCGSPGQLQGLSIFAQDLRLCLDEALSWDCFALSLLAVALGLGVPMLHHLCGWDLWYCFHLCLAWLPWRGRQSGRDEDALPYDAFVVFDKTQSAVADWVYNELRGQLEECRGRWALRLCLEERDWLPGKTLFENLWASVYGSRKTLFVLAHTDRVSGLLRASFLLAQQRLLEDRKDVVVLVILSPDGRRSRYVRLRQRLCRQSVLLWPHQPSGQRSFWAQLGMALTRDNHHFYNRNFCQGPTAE
Description: as §1, §2

SMILES | IC50 (human TLR7) [nM] | IC50 (human TLR8) [nM] | IC50 (human TLR9) [nM]
Cc1cc(-c2[nH]nc(-c3ccc(C4CCN(C5COC5)CC4)nc3)c2C(C)C)cn2ncnc12 [Example 362] | > 3130 | > 3130 | 25100
Cc1cc(-c2[nH]nc(C3CCC(NC4CCN(C(C)C)CC4)CC3)c2C(C)C)cn2ncnc12 (single isomer, unassigned) [Example 289] | 5.19 | 0.97 | 19700
Cc1cc(-c2[nH]nc(C(=O)NC3CCNCC3)c2C(C)C)cn2ncnc12 [Example 43, 4-isopropyl-5-(8-methyl-[1,2,4]triazolo[1,5-a]pyridin-6-yl)-N-(piperidin-4-yl)-1H-pyrazole-3-carboxamide] | 2.54 | 5.22 | > 50000
Cc1cc(-c2[nH]nc(C3CCN(CC(=O)N(C)C)CC3)c2C(C)C)cn2ncnc12 [compound 212] | 0.62 | 0.63 | 7390
Cc1cc(-c2[nH]nc(C(=O)NC3CCC(NCC(C)(C)C)CC3)c2C(C)C)cn2ncnc12 (stereo not drawn) [Example 131] | 7.48 | 32.6 | 10900
Cc1cc(-c2[nH]nc(C(=O)N[C@H]3CC[C@@H](N)CC3)c2C(C)C)cn2ncnc12 [Example 63] | 24.8 | 14.6 | > 50000
Cc1cc(-c2[nH]nc(C(=O)N3CCC(N)CC3)c2C(C)C)cn2ncnc12 [Example 55] | 2.99 | 1.15 | > 50000
Cc1cc(-c2[nH]nc(C(=O)NC[C@@H]3CCCN3)c2C(C)C)cn2ncnc12 [Example 51] | 1.59 | 1.03 | 8800
Cc1cc(-c2[nH]nc(C(=O)N[C@H]3CC[C@H](NCc4cccnc4)CC3)c2C(C)C)cn2ncnc12 [Example 112] | 11.4 | 28.3 | > 50000
COc1cc(-c2[nH]nc(-c3ccc4c(c3)CCNC4)c2C(C)C)cn2ncnc12 [Example 234] | 15.1 | 59.8 | > 50000
Cc1cc(-c2[nH]nc(C(=O)NC3CCN(C(C)C(C)C)CC3)c2C(C)C)cn2ncnc12 (stereo not drawn) [Example 125] | 5.8 | 25.9 | 5400

The remaining molecules from weak to strong by IC50 (human TLR7), led by results:

IC50 (human TLR7) [nM] | IC50 (human TLR8) [nM] | IC50 (human TLR9) [nM] | SMILES
413 | 515 | > 50000 | Cc1cc(-c2[nH]nc(-c3nc4c(s3)CN(CC(=O)N(C)C)CC4)c2C(C)C)cn2ncnc12 [Example 275]
126 | 132 | > 50000 | COc1cc(-c2[nH]nc(-c3cnc(C4CCN(CCCF)CC4)cn3)c2C(C)C)cn2ncnc12 [Example 399]
118 | 9.33 | > 50000 | Cc1cc(-c2[nH]nc(-c3ccc(C4CCN(C(C)C)CC4)cc3)c2C(C)C)cn2ncnc12 [Example 307, 6-(4-isopropyl-3-(4-(1-isopropylpiperidin-4-yl)phenyl)-1H-pyrazol-5-yl)-8-methyl-[1,2,4]triazolo[1,5-a]pyridine]
58.8 | 31.4 | > 50000 | COc1cc(-c2[nH]nc(-c3cnc(C4CCN(C5COC5)CC4)cn3)c2C(C)C)cn2ncnc12 [Example 385]
25.6 | 14.6 | > 50000 | Cc1cc(-c2[nH]nc(C3CCC(N4CCN(C)CC4)CC3)c2C(C)C)cn2ncnc12 (single isomer, unassigned) [Example 286]
4.92 | 1.5 | 43500 | Cc1cc(-c2[nH]nc(-c3cnc4c(c3)CNCC4)c2C(C)C)cn2ncnc12 [Example 230]
3.84 | 0.53 | 19400 | COc1cc(-c2[nH]nc(-c3ccc(C4CCN(CC(C)(C)O)CC4)cc3)c2C(C)C)cn2ncnc12 [Example 319]
3.03 | 13.5 | 12800 | Cc1cc(-c2[nH]nc(C(=O)NCC3CN(C(C)C)CCO3)c2C(C)C)cn2ncnc12 (stereo not drawn) [Example 141]
3.01 | 1.43 | 32800 | Cc1cc(-c2[nH]nc(C(=O)NC3CNC3)c2C(C)C)cn2ncnc12 [Example 58]
